Reference: patent publication US6255089A (priority 1998, dated 2001)
Read-outs that look alike come from different tables or passages of the source.

Legend:
native 5-HT2A receptor [1] = biological target: T1, native 5-HT2A receptor (Rattus norvegicus, UniProt P14842); format: cell-based; conditions: 10 μM 5-HT
T1 construct: expressed in transfected cells; host or cells: COS-7

[2] = biological target: T2, cys→lys mutant 5-HT2A receptor (Rattus norvegicus, UniProt P14842, C322K); format: binding; design: expressed in transfected cells; host or cells: COS-7; conditions: for change in binding affinity at the mutant 5-HT2A receptor: cys→lys mutant versus native, 3H-ketanserin
Description: Saturation experiments were performed by using [^3 H]ketanserin (0.1-5.0 nM).

[3] = system: 5-HT2A cys→lys mutant receptor; conditions: inverse agonism; for reduction of constitutively activated IP basal activity: mutated 5-HT2A cys→lys receptor
5-HT2C receptor = format: binding, rat; conditions: COS-7; native versus ser→lys and ser→phe mutant
[4] = biological target: T2, cys→lys mutant 5-HT2A receptor; conditions: saturation analysis
Description: (§1) Bmax values were determined by a BCA assay.
(§2) BMAX values were determined by a BCA assay.

native 5-HT2A receptor [5] = biological target: T1, native 5-HT2A receptor; format: binding; conditions: 3H-ketanserin saturation
Description: as §1, §2

[6] = system: basal levels of IP production; format: cell-based, rat; conditions: COS-7, no agonist

T2 sequence (P14842 whole entry C322K): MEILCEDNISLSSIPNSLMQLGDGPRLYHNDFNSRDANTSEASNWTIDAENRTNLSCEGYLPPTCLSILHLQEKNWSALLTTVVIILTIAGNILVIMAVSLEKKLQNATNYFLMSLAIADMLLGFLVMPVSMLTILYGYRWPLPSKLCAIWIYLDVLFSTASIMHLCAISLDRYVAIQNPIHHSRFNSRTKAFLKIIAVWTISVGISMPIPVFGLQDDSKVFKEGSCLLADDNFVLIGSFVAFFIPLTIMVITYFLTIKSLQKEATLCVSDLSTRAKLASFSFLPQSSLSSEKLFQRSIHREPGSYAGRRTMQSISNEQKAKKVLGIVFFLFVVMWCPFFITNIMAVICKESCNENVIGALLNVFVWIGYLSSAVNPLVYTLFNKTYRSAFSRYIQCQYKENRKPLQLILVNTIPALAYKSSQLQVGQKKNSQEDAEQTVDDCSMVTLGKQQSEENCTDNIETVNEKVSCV
T1 sequence (P14842 whole entry): as the sequence (P14842 whole entry C322K) above, with K322C counted along it

With NCCc1c[nH]c2ccc(O)cc12 [5-HT, serotonin] the “additional increase in IP production upon addition of 5-HT” value (native 5-HT2A receptor [1]) was “additional increase in IP production”.

O=C(CCCN1CCC2(CC1)C(=O)NCN2c1ccccc1)c1ccc(F)cc1 [spiperone] was tested, and the “change in binding affinity at the mutant 5-HT2A receptor” value (shortened to “change in binding affinity”) [2] was “no change in binding affinity” and the “reduction of constitutively activated IP basal activity” value [3] was “reduce the constitutively activated IP basal activity”.

With CN1CCN(C2=Nc3ccccc3Oc3ccc(Cl)cc32)CC1 [loxapine] the “reduction of constitutively activated IP basal activity” value [3] was “reduce the constitutively activated IP basal activity”.

CN1C[C@@H](NS(=O)(=O)N(C)C)C[C@@H]2c3cccc4c3c(cn4C)C[C@H]21 [^3 H-mesulergine] was tested, and the “5-HT2C receptor density (3H-mesulergine saturation)” value (5-HT2C receptor) was “greater in cells transfected with native receptors than in cells transfected with either the ser→lys or the ser→phe mutant receptors”.

With COc1cc(CC(C)N)c(OC)cc1C (stereo not shown) [DOM] the “fold increase in affinity (Ki)” value ([2]; cys→lys mutant versus native 5-HT2A receptor) was 5 fold.

With O=C(c1ccc(F)cc1)C1CCN(CCn2c(=O)[nH]c3ccccc3c2=O)CC1 [^3 H-ketanserin] the “KD of 3H-ketanserin, native versus mutant” value [4] was “did not differ between the native and mutant receptors” and the BMAX (native 5-HT2A receptor [5]) was 193 ± 37 fmol/mg.

For COc1cc(CC(C)N)c(OC)cc1Br (stereo not shown) [DOB], the “fold increase in affinity (Ki)” value ([2]; rat, cos-7 cells) was 7.4 fold.

In the case of O=C(c1ccc(F)cc1)C1CCN(CCn2c(=O)[nH]c3ccccc3c2=O)CC1 [ketanserin], the “change in binding affinity” value [2] is reported as “no change in binding affinity” and the “decrease of the constitutive IP stimulation” value ([3]; COS-7, 5-HT2A cys→lys receptor) is reported as 80%.

In the case of CN1CCN2c3ccccc3Cc3ccccc3C2C1 (stereo not shown) [mianserin], the “change in binding affinity” value [2] is reported as “apparent decease in the binding affinity”.

B1: ser→phe mutant 5-HT2C receptors: rat 5-HT2C receptor with serine #312 mutated to phenylalanine (protein, UniProt P08909 33-460, looked up, variant S312F)
5-hydroxytryptamine receptor …: IVTDTFNSSDGGRLFQFPDGVQNWPALSIVVIIIMTIGGNILVIMAVSMEKKLHNATNYFLMSLAIADMLVGLLVMPLSLLAILYDYVWPLPRYLCPVWISLDVLFSTASIMHLCAISLDRYVAIRNPIEHSRFNSRTKAIMKIAIVWAISIGVSVPIPVIGLRDESKVFVNNTTCVLNDPNFVLIGSFVAFFIPLTIMVITYFLTIYVLRRQTLMLLRGHTEEELANMSLNFLNCCCKKNGGEEENAPNPNPDQKPRRKKKEKRPRGTMQAINNEKKAFKVLGIVFFVFLIMWCPFFITNILSVLCGKACNQKLMEKLLNVFVWIGYVCSGINPLVYTLFNKIYRRAFSKYLRCDYKPDKKPPVRQIPRVAATALSGRELNVNIYRHTNERVARKANDPEPGIEMQVENLELPVNPSNVVSERISSV
For B1, the “fold increase in basal levels of IP production compared with cells expressing native 5-HT2C receptors” value [6] was 2 fold.
